# Measured values taken from the supplement of paper PMC11061612.
# Legend:
# U-698-M [1] = assay: Bliss excess, mean over the matrix (fraction); higher = more synergy; conditions: U-[…], B-Cell Non-Hodgkin's Lymphoma, 7x7
# Outline: (§1)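 After 24 hours at 37°C and 5% CO2 in 1536-well plates, cells in DMEM/F12 or RPMI plus 10% FBS received two-drug dose matrices for 72 hours. Viability came from CellTiter-Glo 2.0 luminescence and was scaled as inhibition, anchored at 0 by vehicle wells and at 1 by blank wells. Combination Emax is taken as the second-highest inhibition in the matrix, and Bliss excess as the observed combination effect less EA + EB − EA·EB, with EA and EB the single-agent effects.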
# U-698-M [2] = assay: combination Emax (second highest fraction inhibited in the dose matrix, 72 h); higher = more inhibition; conditions: B-Cell Non-Hodgkin's Lymphoma
# Outline: as §1
# [3] = first compound max 1 µM, partner max 10 µM
# [4] = first compound max 1 µM, partner max 10 µM, 7x7
# [5] = first compound max 1 µM, partner max 1 µM
# [6] = first compound max 1 µM, partner max 3 µM
# [7] = first compound max 1 µM, partner max 3 µM, 7x7, may be a limit of the assay
# [8] = first compound max 1 µM, partner max 1 µM, 7x7, may be a limit of the assay
# [9] = first compound max 1 µM, partner max 10 µM, 7x7, may be a limit of the assay
# 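Wherever Bliss excess, mean over the matrix is given: after 72 h of two-drug dosing.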
smiles,measurement,setting,value
COc1nnc2ccc(N3CCC(c4ccc(OCCN5CCN(C)C(=O)[C@H]5C)cc4)CC3)nn12 [AZD5153] + C[C@@H]1COCCN1C2=NC(=NC(=C2)C3(CC3)[S@](=N)(=O)C)C4=C5C=CNC5=NC=C4 [AZD6738],Bliss excess,U-698-M [1]; [3],-0.0616
same,combination Emax,U-698-M [2]; [4],0.912
COc1nnc2ccc(N3CCC(c4ccc(OCCN5CCN(C)C(=O)[C@H]5C)cc4)CC3)nn12 [AZD5153] + Cc1c2c(nn1C)CSCc1cc(n(C)n1)CSc1cc(c3ccccc3c1)OCCCc1c(C(=O)O)n(C)c3c-2c(Cl)ccc13 [AZD5991],Bliss excess,U-698-M [1]; [5],-0.0271
same,combination Emax,"U-698-M [2]; first compound max 1 µM, partner max 1 µM, 7x7",0.998
COc1nnc2ccc(N3CCC(c4ccc(OCCN5CCN(C)C(=O)[C@H]5C)cc4)CC3)nn12 [AZD5153] + Cn1cnc2c(F)c(Nc3ccc(Br)cc3Cl)c(C(=O)NOCCO)cc21 [Selumetinib],Bliss excess,U-698-M [1]; [3],-0.0573
same,combination Emax,U-698-M [2]; [4],0.622
Cc1c2c(nn1C)CSCc1cc(n(C)n1)CSc1cc(c3ccccc3c1)OCCCc1c(C(=O)O)n(C)c3c-2c(Cl)ccc13 [AZD5991] + C1CN(CCC1(C(=O)N[C@@H](CCO)C2=CC=C(C=C2)Cl)N)C3=NC=NC4=C3C=CN4 [Capivasertib],Bliss excess,U-698-M [1]; [6],-0.0016
same,combination Emax,U-698-M [2]; [7],1
Cc1c2c(nn1C)CSCc1cc(n(C)n1)CSc1cc(c3ccccc3c1)OCCCc1c(C(=O)O)n(C)c3c-2c(Cl)ccc13 [AZD5991] + CC1(C)CCC(CN2CCN(c3ccc(C(=O)NS(=O)(=O)c4ccc(NCC5CCOCC5)c([N+](=O)[O-])c4)c(Oc4cnc5[nH]ccc5c4)c3)CC2)=C(c2ccc(Cl)cc2)C1 [Venetoclax],Bliss excess,U-698-M [1]; [5],-0.0069
same,combination Emax,U-698-M [2]; [8],1
Cc1c2c(nn1C)CSCc1cc(n(C)n1)CSc1cc(c3ccccc3c1)OCCCc1c(C(=O)O)n(C)c3c-2c(Cl)ccc13 [AZD5991] + CC(=O)O[C@H]1C(=O)[C@@]2(C)[C@H]([C@H](OC(=O)c3ccccc3)[C@]3(O)C[C@H](OC(=O)[C@H](O)[C@@H](NC(=O)c4ccccc4)c4ccccc4)C(C)=C1C3(C)C)[C@]1(OC(C)=O)CO[C@@H]1C[C@@H]2O [Paclitaxel],Bliss excess,U-698-M [1]; [6],-0.0123
same,combination Emax,U-698-M [2]; [7],1
Cc1c2c(nn1C)CSCc1cc(n(C)n1)CSc1cc(c3ccccc3c1)OCCCc1c(C(=O)O)n(C)c3c-2c(Cl)ccc13 [AZD5991] + CCN(CCO)CCCOc1ccc2c(Nc3cc(CC(=O)Nc4cccc(F)c4)[nH]n3)ncnc2c1 [AZD2811],Bliss excess,U-698-M [1]; [5],0.0024
same,combination Emax,U-698-M [2]; [8],1
Cc1c2c(nn1C)CSCc1cc(n(C)n1)CSc1cc(c3ccccc3c1)OCCCc1c(C(=O)O)n(C)c3c-2c(Cl)ccc13 [AZD5991] + CN(C)CCCOc1ccc(-c2ccc3ncc4c(c3c2)n(C2CCOCC2)c(=O)n4C)cn1 [AZD0156],Bliss excess,U-698-M [1]; [5],0.0036
same,combination Emax,U-698-M [2]; [8],1
Cc1c2c(nn1C)CSCc1cc(n(C)n1)CSc1cc(c3ccccc3c1)OCCCc1c(C(=O)O)n(C)c3c-2c(Cl)ccc13 [AZD5991] + CS(=O)(=O)CCNCc1ccc(-c2ccc3ncnc(Nc4ccc(OCc5cccc(F)c5)c(Cl)c4)c3c2)o1 [Lapatinib],Bliss excess,U-698-M [1]; [3],0.0295
same,combination Emax,U-698-M [2]; [4],0.992
Cc1c2c(nn1C)CSCc1cc(n(C)n1)CSc1cc(c3ccccc3c1)OCCCc1c(C(=O)O)n(C)c3c-2c(Cl)ccc13 [AZD5991] + C[C@@H]1COCCN1C2=NC(=NC(=C2)C3(CC3)[S@](=N)(=O)C)C4=C5C=CNC5=NC=C4 [AZD6738],Bliss excess,U-698-M [1]; [3],-0.0194
same,combination Emax,U-698-M [2]; [9],1
Cc1c2c(nn1C)CSCc1cc(n(C)n1)CSc1cc(c3ccccc3c1)OCCCc1c(C(=O)O)n(C)c3c-2c(Cl)ccc13 [AZD5991] + C[C@@H](Nc1cc(F)cc(F)c1)c1cc(C(=O)N(C)C)cc2c(=O)cc(N3CCOCC3)oc12 [AZD8186],Bliss excess,U-698-M [1]; [6],-0.0258
same,combination Emax,U-698-M [2]; [7],1
Cc1c2c(nn1C)CSCc1cc(n(C)n1)CSc1cc(c3ccccc3c1)OCCCc1c(C(=O)O)n(C)c3c-2c(Cl)ccc13 [AZD5991] + Cc1cc2ncnn2cc1Nc1ncc2c(n1)n(C1CCOCC1)c(=O)n2C [AZD7648],Bliss excess,U-698-M [1]; [3],0.0183
same,combination Emax,U-698-M [2]; [9],1
Cc1c2c(nn1C)CSCc1cc(n(C)n1)CSc1cc(c3ccccc3c1)OCCCc1c(C(=O)O)n(C)c3c-2c(Cl)ccc13 [AZD5991] + Cn1cnc2c(F)c(Nc3ccc(Br)cc3Cl)c(C(=O)NOCCO)cc21 [Selumetinib],Bliss excess,U-698-M [1]; [6],-0.0034
same,combination Emax,U-698-M [2]; [7],1
Cc1c2c(nn1C)CSCc1cc(n(C)n1)CSc1cc(c3ccccc3c1)OCCCc1c(C(=O)O)n(C)c3c-2c(Cl)ccc13 [AZD5991] + Nc1ccn([C@@H]2O[C@H](CO)[C@@H](O)C2(F)F)c(=O)n1 [Gemcitabine],Bliss excess,"U-698-M [1]; first compound max 1 µM, partner max 0.3 µM",0.0211
same,combination Emax,"U-698-M [2]; first compound max 1 µM, partner max 0.3 µM, 7x7",0.966
C[C@@H]1COCCN1c1cc(C2([S@](C)(=N)=O)CC2)nc(-c2ccnc3[nH]ccc23)n1 [AZD6738] + C1CC(C1)(C(=O)[O-])C(=O)[O-].N.N.[Pt+2] [Carboplatin],Bliss excess,"U-698-M [1]; first compound max 10 µM, partner max 10 µM",-0.0625
same,combination Emax,"U-698-M [2]; first compound max 10 µM, partner max 10 µM, 7x7",0.84
